Assay results reported in publication PMC5328764 (Physiological Reports, 2017).

Legend:
healthy volunteers [1] = assay: Plasma glucose after s.c. injection (glucose oxidase method); assay type: in vivo, human
Method: Plasma glucose was measured by the glucose oxidase method using a glucose analyzer (Yellow Springs Instrument, YSI Inc., Yellow Springs, OH).
(§1) Intravenous access was then established. […] Baseline measurements were made twice during the resting period.

healthy volunteers [2] = assay: Cardiovascular measurements by task force monitor (heart rate, blood pressure, cardiac output, stroke volume); assay type: in vivo, human; details: for Effect on heart rate (in words): s.c. GLP‐1 and GLP‐1 9–36amide 1.5 nmol/kg, exenatide 10 μg, 0–120 min, two‐way ANOVA, Tukey post hoc
Method: Cardiac parameters were continuously measured from time −15 to 120 min. The task force monitor (TFM; CN Systems, Graz, Austria) continuously measures the heart rate, blood pressure (by finger plethysmography), cardiac output (by impedance cardiography), and calculates stroke volume (SV). The continuous, beat‐to‐beat measuring of blood pressure was supplemented with the conventional noninvasive oscillometric blood pressure measurement. […] This was done to eliminate brief or short‐lasting changes in cardiac parameters due to accidental movement of the volunteer or slight disturbance during scanning.
as §1

[3] = Plasma concentrations of the test substances by radioimmunoassay after s.c. injection; details: eight healthy volunteers
healthy volunteers [4] = assay: Plasma pancreatic polypeptide (PP) after s.c. injection (radioimmunoassay); assay type: in vivo, human; details: fasting healthy volunteers; s.c. GLP‐1 1.5 nmol/kg; due to excursions in a subset of participants
Description: as §1

healthy volunteers [5] = assay: Serum insulin and C‐peptide after s.c. injection (ECLIA); assay type: in vivo, human; details: fasting healthy volunteers n = 8; for Effect on insulin and C‐peptide (in words): s.c. 1.5 nmol/kg, 0–120 min
Method: Plasma insulin and C‐peptide levels were measured on a Cobas® 8000, e602 module (Roche Diagnostics GmbH, Mannheim) using, respectively, Cobas Insulin reagents and Cobas Insulin Calibrator, and Cobas C‐Peptide reagents and Cobas C‐Peptide Calibrator. The Cobas module employs a sandwich electro‐chemiluminescense immunoassay (ECLIA).
as §1
Analyses of normally distributed data were conducted by two‐way ANOVA followed by Tukey post hoc testing if the ANOVA indicated significant differences between the study days.

healthy volunteers [6] = assay: Doppler ultrasound blood flow in superior mesenteric artery, celiac trunk and renal artery (RI, TAMV); assay type: in vivo, human; details: healthy volunteers n = 8, s.c. GLP‐1 and GLP‐1 9–36amide 1.5 nmol/kg, exenatide 10 μg, 0–120 min
Description: as §1

[7] = healthy volunteers n = 8, supine

Row | Time at which GLP‐1 9–36amide concentrations reached near basal levels ([3]; 1.5 nmol/kg GLP‐1 9–36amide s.c.) [min] | Plasma concentration of the metabolite GLP‐1 9–36amide (total GLP‐1 assay), peak ([3]; 1.5 nmol/kg GLP‐1 9–36amide s.c., at 30 min, radioimmunoassay, mean) | Compound | Plasma glucose nadir (healthy volunteers [1]; fasting healthy volunteers n = 8, s.c. 1.5 nmol/kg, from around 5 mmol/L, nadir at 30 min, mean) [mmol/L] | Time of plasma glucose nadir (healthy volunteers [1]; fasting healthy volunteers n = 8, s.c. GLP‐1 1.5 nmol/kg, exenatide 10 μg) [min] | Time of peak heart rate increase (healthy volunteers [2]; healthy volunteers n = 8, supine, s.c. GLP‐1 1.5 nmol/kg) [min] | Maximum increase in heart rate (healthy volunteers [2]; healthy volunteers n = 8, supine, s.c. GLP‐1 1.5 nmol/kg, peaking at 30 min) | Effect on heart rate (in words) (healthy volunteers [2]; [7]) | Effect on cardiac output (in words) (healthy volunteers [2]; healthy volunteers n = 8, impedance cardiography, 120 min period, on the placebo day decrease by about 1 L/min) | Effect on stroke volume (in words) (healthy volunteers [2]; healthy volunteers n = 8, s.c. GLP‐1 1.5 nmol/kg, lower values at 15 and 30 min) | Time at which intact GLP‐1 reached basal levels ([3]; 1.5 nmol/kg GLP‐1 s.c.) | Total plasma GLP‐1 concentration, peak mean value on the GLP‐1 day ([3]; 1.5 nmol/kg GLP‐1 s.c., total = GLP‐1 7–36amide + 9–36amide, reached within 15 min, still elevated at 120 min, radioimmunoassay, mean) | Time of peak or plateau plasma concentration of the injected peptide (exendin‐4 or total GLP‐1 assay) ([3]; s.c., exenatide 10 μg, GLP‐1 and GLP‐1 9–36amide 1.5 nmol/kg) [min] | Effect on plasma pancreatic polypeptide (PP) (in words) (healthy volunteers [4]) | Effect on insulin and C‐peptide (in words) (healthy volunteers [5]) | Time until which C‐peptide levels remained elevated (healthy volunteers [5]; s.c. GLP‐1 1.5 nmol/kg) [min] | Time of insulin peak (healthy volunteers [5]; s.c. GLP‐1 1.5 nmol/kg, exenatide 10 μg (for exenatide insulin and C‐peptide)) [min] | Changes in blood flow parameters in the mesenteric or renal arteries (healthy volunteers [6]) | Effect on plasma glucose (in words) (healthy volunteers [1]; fasting healthy volunteers n = 8, s.c. exenatide 10 μg, GLP‐1 9–36amide 1.5 nmol/kg, 0–120 min)
1 |  |  | CC[C@H](C)[C@H](NC(=O)[C@H](Cc1ccccc1)NC(=O)[C@H](CCC(=O)O)NC(=O)[C@H](CCCCN)NC(=O)[C@H](C)NC(=O)[C@H](C)NC(=O)[C@H](CCC(N)=O)NC(=O)CNC(=O)[C@H](CCC(=O)O)NC(=O)[C@H](CC(C)C)NC(=O)[C@H](Cc1ccc(O)cc1)NC(=O)[C@H](CO)NC(=O)[C@H](CO)NC(=O)[C@@H](NC(=O)[C@H](CC(=O)O)NC(=O)[C@H](CO)NC(=O)[C@@H](NC(=O)[C@H](Cc1ccccc1)NC(=O)[C@@H](NC(=O)CNC(=O)[C@H](CCC(=O)O)NC(=O)[C@H](C)NC(=O)[C@@H](N)Cc1c[nH]cn1)[C@@H](C)O)[C@@H](C)O)C(C)C)C(=O)N[C@@H](C)C(=O)N[C@@H](Cc1c[nH]c2ccccc12)C(=O)N[C@@H](CC(C)C)C(=O)N[C@H](C(=O)N[C@@H](CCCCN)C(=O)NCC(=O)N[C@@H](CCCNC(=N)N)C(N)=O)C(C)C [GLP‐1, glucagon‐like peptide‐1] | 3.5 | 30 | 30 | about 14 beats per min | significantly increased heart rate | tended to rise | appeared to fall more | around 90 min | around 300 pmol/L | ≤ 15 | mean PP levels rose late | caused a rise in insulin | 60 | 15 | Neither GLP‐1, GLP‐1_9–36 amide, exenatide nor saline elicited any changes in blood flow parameters | 
2 | 120 | about 290 pmol/L | GLP‐1_9–36amide |  |  |  |  | remained stable |  |  |  |  |  |  | no significant changes |  |  | Neither GLP‐1, GLP‐1_9–36 amide, exenatide nor saline elicited any changes in blood flow parameters | Neither saline nor the metabolite, GLP‐1_9–36amide influenced plasma glucose levels
